± gives the expanded uncertainty stated by the source.
Assay: Molar enthalpy of transition or fusion
Details: Crystal 2; Adiabatic calorimetry

Question: For `O=P([O-])([O-])[O-].[Cs+].[Mg+2]` [caesium-magnesium monophosphate], which “Molar enthalpy of transition or fusion” value is on record?
Answer: 0.0648 ± 0.00598 kcal/mol

Reference: the NIST ThermoML archive (doi:10.1016/j.jct.2007.11.001)
